Patent US9701689B2, “Substituted pyridines and pyridazines as CCR10 receptor inhibitors” (KYOWA HAKKO KIRIN CO., LTD., priority 2012, dated 2017)

Molecular target: T1, human CCR10 (Homo sapiens, UniProt P46092)
T1 construct: expressed in transfected cells; host or cells: KJMGER8 cells (Namalwa cell-derived line), beta-estradiol-induced; hCCR10G16 cells
T1 sequence (P46092 1-362): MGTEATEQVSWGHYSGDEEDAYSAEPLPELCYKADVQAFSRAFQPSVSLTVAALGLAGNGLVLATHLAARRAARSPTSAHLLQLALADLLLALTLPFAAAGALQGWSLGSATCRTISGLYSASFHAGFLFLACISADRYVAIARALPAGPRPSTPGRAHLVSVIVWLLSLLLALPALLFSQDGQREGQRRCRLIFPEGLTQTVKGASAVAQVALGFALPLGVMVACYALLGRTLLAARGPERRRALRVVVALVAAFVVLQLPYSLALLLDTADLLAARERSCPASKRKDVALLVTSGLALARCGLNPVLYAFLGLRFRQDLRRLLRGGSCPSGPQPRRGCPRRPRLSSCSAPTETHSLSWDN
Assay: CCR10 antagonistic effect: calcium assay of human CCR10 (CTACK-induced increase of intracellular calcium in hCCR10G16 cells)
Type: cell-based
Details: at a concentration of not more than 1000 nmol/L; human CCR10-expressing hCCR10G16 cells, 300 nmol/L CTACK added; read-out: inhibition of increase in the calcium ion concentration
How it was run: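 KJMGER8-derived hCCR10G16 cells (CCR10 plus Gα16, induced 24 h with 10 nmol/L β-estradiol), Fluo-3 loaded, preincubated with compound 30 min at 37 °C. Stimulated with CTACK (300 nmol/L solution before addition); calcium read ~5 min by FDSS, max−min fluorescence; % inhibition vs control.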

Row | Compound | inhibition at up to 1 µM
1 | Cc1cc(F)ccc1Nc1cc(S(=O)(=O)N2CCCC2C(=O)O)ncc1C(=O)N1CCC(c2ccc(F)cc2)CC1 (stereo not shown) [Compound 120, 1-{4-(4-fluoro-2-methylphenylamino)-5-[4-(4-fluorophenyl)piperidine-1-carbonyl]pyridin-2-ylsulfonyl}pyrrolidine-2-carboxylic acid] | ≥ 50%
2 | Cc1c(S(=O)(=O)Nc2ccon2)ncc(C(=O)N2CCC(c3ccc(F)cc3)CC2)c1Nc1cc(F)ccc1F [Compound 252, 4-(2,5-difluorophenylamino)-5-[4-(4-fluorophenyl)piperidine-1-carbonyl]-N-(isoxazol-3-yl)-3-methylpyridine-2-sulfonamide] | ≥ 50%
3 | COC(=O)C1(c2ccccc2)CCN(C(=O)c2cnc(S(N)(=O)=O)c(Cl)c2Nc2cccc(C)c2)CC1 [Compound 201, methyl 1-[5-chloro-6-sulfamoyl-4-(m-tolylamino)nicotinoyl]-4-phenylpiperidine-4-carboxylate] | ≥ 50%
4 | CC(=O)N1CCN(S(=O)(=O)c2cc(Nc3ccc(F)cc3C)c(C(=O)N3CCC(c4ccc(F)cc4)CC3)cn2)CC1 [Compound 124, 1-{4-{4-(4-fluoro-2-methylphenylamino)-5-[4-(4-fluorophenyl)piperidine-1-carbonyl]pyridin-2-ylsulfonyl}piperazin-1-yl}ethanone] | ≥ 50%
5 | Cc1cccc(Nc2c(C(=O)N3CCC(c4ccc(F)cc4)CC3)cnc(S(N)(=O)=O)c2Cl)c1 [Compound 26, 3-chloro-5-[4-(4-fluorophenyl)piperidine-1-carbonyl]-4-(m-tolylamino)pyridine-2-sulfonamide] | ≥ 50%
6 | Cc1cc(F)ccc1Nc1cc(S(=O)(=O)Nc2cncs2)ncc1C(=O)N1CCC(c2ccc(F)cc2)CC1 [Compound 155, 4-(4-fluoro-2-methylphenylamino)-5-[4-(4-fluorophenyl)piperidine-1-carbonyl]-N-(thiazol-5-yl)pyridine-2-sulfonamide] | ≥ 50%
7 | Cc1cc(F)ccc1Nc1cc(S(=O)(=O)Nc2onc(C)c2C)ncc1C(=O)N1CCC(c2ccc(F)cc2)CC1 [Compound 158, N-(3,4-dimethylisoxazol-5-yl)-4-(4-fluoro-2-methylphenylamino)-5-[4-(4-fluorophenyl)piperidine-1-carbonyl]pyridine-2-sulfonamide] | ≥ 50%
8 | NS(=O)(=O)c1cc(Nc2ccccc2)c(C(=O)N2CCC(c3ccc(F)cc3)CC2)cn1 [Compound 95, 5-[4-(4-fluorophenyl)piperidine-1-carbonyl]-4-(phenylamino)pyridine-2-sulfonamide] | ≥ 50%
9 | Cc1ccc(F)c(Nc2cc(S(N)(=O)=O)ncc2C(=O)N2CCC(c3ccc(F)cc3)CC2)c1 [Compound 68, 4-(2-fluoro-5-methylphenylamino)-5-[4-(4-fluorophenyl)piperidine-1-carbonyl]pyridine-2-sulfonamide] | ≥ 50%
10 | Cc1cc(NS(=O)(=O)c2ncc(C(=O)N3CCC(c4ccc(F)cc4)CC3)c(Nc3ccc(F)cc3F)c2C)sn1 [Compound 316, 4-(2,4-difluorophenylamino)-5-[4-(4-fluorophenyl)piperidine-1-carbonyl]-3-methyl-N-(3-methylisothiazol-5-yl)pyridine-2-sulfonamide] | ≥ 50%
11 | Cc1c(S(=O)(=O)Nc2ccon2)ncc(C(=O)N2CCC(c3ccc(F)cc3)CC2)c1Nc1ccc2c(c1)COC2 [Compound 247, 4-(1,3-dihydroisobenzofuran-5-ylamino)-5-[4-(4-fluorophenyl)piperidine-1-carbonyl]-N-(isoxazol-3-yl)-3-methylpyridine-2-sulfonamide] | ≥ 50%
12 | NS(=O)(=O)c1ncc(C(=O)N2CCC(c3ccc(F)cc3)CC2)c(NCc2ccccc2)c1Cl [Compound 44, 4-(benzylamino)-3-chloro-5-[4-(4-fluorophenyl)piperidine-1-carbonyl]pyridine-2-sulfonamide] | ≥ 50%
13 | Cc1c(S(N)(=O)=O)ncc(C(=O)N2CCC3(CC2)COc2ccccc23)c1NCc1ccccc1 [Compound 261, 4-(benzylamino)-3-methyl-5-(2H-spiro[benzofuran-3,4′-piperidine]-1′-ylcarbonyl)pyridine-2-sulfonamide] | ≥ 50%
14 | COc1ccc(Cl)c(Nc2c(C(=O)N3CCC(c4ccc(F)cc4)CC3)cnc(S(N)(=O)=O)c2Cl)c1 [Compound 324, 3-chloro-4-(2-chloro-5-methoxyphenylamino)-5-[4-(4-fluorophenyl)piperidine-1-carbonyl]pyridine-2-sulfonamide] | ≥ 50%
15 | CCNC(=O)N(C)S(=O)(=O)c1cc(Nc2ccc(F)cc2C)c(C(=O)N2CCC(c3ccc(F)cc3)CC2)cn1 [Compound 23, N-(ethylcarbamoyl)-4-(4-fluoro-2-methylphenylamino)-5-[4-(4-fluorophenyl)piperidine-1-carbonyl]-N-methylpyridine-2-sulfonamide] | ≥ 50%
16 | Cc1cc(F)ccc1Nc1cc(S(=O)(=O)N2CCCCC2)ncc1C(=O)N1CCC(c2ccc(F)cc2)CC1 [Compound 121, [4-(4-fluoro-2-methylphenylamino)-6-(piperidin-1-ylsulfonyl)pyridin-3-yl][4-(4-fluorophenyl)piperidin-1-yl]methanone] | ≥ 50%

Other lines, results leading:

Row | inhibition at up to 1 µM | Compound
17 | ≥ 50% | COc1ccc(Nc2c(C(=O)N3CCC(c4ccc(F)cc4)CC3)cnc(S(=O)(=O)Nc3ccon3)c2C)c(C)c1 [Compound 234, 5-[4-(4-fluorophenyl)piperidine-1-carbonyl]-N-(isoxazol-3-yl)-4-(4-methoxy-2-methylphenylamino)-3-methylpyridine-2-sulfonamide]
18 | ≥ 50% | Cc1cc(F)ccc1Nc1cc(S(=O)(=O)NC2CCNC2=O)ncc1C(=O)N1CCC(c2ccc(F)cc2)CC1 (stereo not shown) [Compound 142, 4-(4-fluoro-2-methylphenylamino)-5-[4-(4-fluorophenyl)piperidine-1-carbonyl]-N-(2-oxopyrrolidin-3-yl)pyridine-2-sulfonamide]
19 | ≥ 50% | NS(=O)(=O)c1ncc(C(=O)N2CCC(c3ccc(F)cc3)CC2)c(NC2CCc3ccccc32)c1Cl (stereo not shown) [Compound 237, 3-chloro-4-(2,3-dihydro-1H-inden-1-ylamino)-5-[4-(4-fluorophenyl)piperidine-1-carbonyl]pyridine-2-sulfonamide]
20 | ≥ 50% | Cc1ccccc1Nc1c(C(=O)N2CCC3(CC2)COc2ccccc23)cnc(S(N)(=O)=O)c1C [Compound 305, 3-methyl-5-(2H-spiro[benzofuran-3,4′-piperidin]-1′-ylcarbonyl)-4-(o-tolylamino)pyridine-2-sulfonamide]
21 | ≥ 50% | CCNC(=O)NS(=O)(=O)c1cc(NCc2ccccc2)c(C(=O)N2CCC(c3ccc(F)cc3)CC2)cn1 [Compound 163, 4-(benzylamino)-N-(ethylcarbamoyl)-5-[4-(4-fluorophenyl)piperidine-1-carbonyl]pyridine-2-sulfonamide]
22 | ≥ 50% | NS(=O)(=O)c1ncc(C(=O)N2CCC(c3ccccc3)CC2)c(Nc2cccc(Cl)c2)c1Cl [Compound 308, 3-chloro-4-(3-chlorophenylamino)-5-(4-phenylpiperidine-1-carbonyl)pyridine-2-sulfonamide]
23 | ≥ 50% | N#Cc1ccc(C#N)c(Nc2c(C(=O)N3CCC(c4ccc(F)cc4)CC3)cnc(S(N)(=O)=O)c2Cl)c1 [Compound 288, 3-chloro-4-(2,5-dicyanophenylamino)-5-[4-(4-fluorophenyl)piperidine-1-carbonyl]pyridine-2-sulfonamide]
24 | ≥ 50% | Cc1c(S(=O)(=O)Nc2ccon2)ncc(C(=O)N2CCC(c3ccc(F)cc3)CC2)c1Nc1ccc(Cl)c(Cl)c1 [Compound 279, 4-(3,4-dichlorophenylamino)-5-[4-(4-fluorophenyl)piperidine-1-carbonyl]-N-(isoxazol-3-yl)-3-methylpyridine-2-sulfonamide]
25 | ≥ 50% | Cc1cc(F)ccc1Nc1cc(S(=O)(=O)N2CCOC2=O)ncc1C(=O)N1CCC(c2ccc(F)cc2)CC1 [Compound 143, 3-{4-(4-fluoro-2-methylphenylamino)-5-[4-(4-fluorophenyl)piperidine-1-carbonyl]pyridin-2-ylsulfonyl}oxazolidin-2-one]
26 | ≥ 50% | Cc1cc(F)ccc1Nc1cc(S(=O)(=O)NC2CC2)ncc1C(=O)N1CCC(c2ccc(F)cc2)CC1 [Compound 5, N-cyclopropyl-4-(4-fluoro-2-methylphenylamino)-5-[4-(4-fluorophenyl)piperidine-1-carbonyl]pyridine-2-sulfonamide]
27 | ≥ 50% | Cc1c(F)cccc1Nc1cc(S(N)(=O)=O)ncc1C(=O)N1CCC(c2ccc(F)cc2)CC1 [Compound 60, 4-(3-fluoro-2-methylphenylamino)-5-[4-(4-fluorophenyl)piperidine-1-carbonyl]pyridine-2-sulfonamide]
28 | ≥ 50% | NS(=O)(=O)c1ncc(C(=O)N2CCC(c3ccc(F)cc3)CC2)c(N[C@H]2C[C@@H]3CC[C@H]2O3)c1Cl [Compound 217, 4-((1R,2S,4S)-7-oxabicyclo[2.2.1]heptan-2-ylamino)-3-chloro-5-[4-(4-fluorophenyl)piperidine-1-carbonyl]pyridine-2-sulfonamide]
